From EP4678638A1, “NEW E3 UBIQUITIN LIGASE LIGAND, PROTEIN DEGRADATION AGENT AND USE THEREOF” (priority 2023, dated 2024)
Like-named read-outs stand apart in the source and are kept apart here.

Tests used:
Jurkat = assay: CCK-8 proliferation, Jurkat; type: cell-based, Human
Experimental: The tumor cells used herein were cultured in a cell culture medium listed in table A1 at 37°C in an incubator with 5% CO2. Prior to experimentation, all cell lines used were correctly identified by STR profiling, and tested negative for mycoplasma contamination using a mycoplasma detection kit through routine screenings. Table A1. Tumor cells and cell culture medium used in the present disclosure
IC50 values of the compounds of the present disclosure (including the compounds in Table 1, and compounds of examples) were measured using the Meilun Cell Counting Kit-8 kit from Dalian Meilun Biotech Co., Ltd. Assay details are as follows: tumor cells were seeded in a 96-well plate at a density listed in Table A2. After 24h, 100 µL of the inoculated cells were treated with 0.5µL of the compounds of the present disclosure (including the compounds in Tables 1 and 2, and compounds of examples) at 10 different successively decreasing concentrations (starting at the highest concentration of 10µM; 5-fold serial dilutions). After the cells were treated with the compounds of the present disclosure for a period of time, the cell viability detection reagent was added to the culture medium for cell viability assessment according to the instructions provided with the CCK-8 kit. […] The growth inhibition of the compounds of the present disclosure on cells was plotted by Prism Graphpad software, and the IC50 values of the compounds of the present disclosure were calculated therefrom. […] Seeding protocol and treatment time for tumor cells

SR = assay: CCK-8 proliferation, SR; type: cell-based, Human; settings: Table B10, compounds designed based on the IRAK4 inhibitors, SR cells, read-out: Inhibitory activity (IC50, nM) on tumor cell proliferation, SR
How it was run: (§1)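 Tumor cells were cultured at 37°C with 5% CO2, seeded, and after 24h treated with compounds at 10 concentrations starting at 10µM (5-fold serial dilutions).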

MM.1S = assay: CCK-8 proliferation, MM.1S; type: cell-based; settings: Table B10, compounds designed based on the IRAK4 inhibitors, MM.1S cells, read-out: Inhibitory activity (IC50, nM) on tumor cell proliferation, MM.1S
How it was run: as §1

RSK2 = biological target: T1, RSK2 (Homo sapiens, UniProt P51812); assay: Western blot degradation of RSK2 (hPBMC); type: cell-based; settings: Table D8
T1 construct: evaluate the effects of the compounds of the present disclosure on the expression of target proteins in cells; endogenous in cells; host or cells: hPBMC
T1 sequence (P51812 whole entry): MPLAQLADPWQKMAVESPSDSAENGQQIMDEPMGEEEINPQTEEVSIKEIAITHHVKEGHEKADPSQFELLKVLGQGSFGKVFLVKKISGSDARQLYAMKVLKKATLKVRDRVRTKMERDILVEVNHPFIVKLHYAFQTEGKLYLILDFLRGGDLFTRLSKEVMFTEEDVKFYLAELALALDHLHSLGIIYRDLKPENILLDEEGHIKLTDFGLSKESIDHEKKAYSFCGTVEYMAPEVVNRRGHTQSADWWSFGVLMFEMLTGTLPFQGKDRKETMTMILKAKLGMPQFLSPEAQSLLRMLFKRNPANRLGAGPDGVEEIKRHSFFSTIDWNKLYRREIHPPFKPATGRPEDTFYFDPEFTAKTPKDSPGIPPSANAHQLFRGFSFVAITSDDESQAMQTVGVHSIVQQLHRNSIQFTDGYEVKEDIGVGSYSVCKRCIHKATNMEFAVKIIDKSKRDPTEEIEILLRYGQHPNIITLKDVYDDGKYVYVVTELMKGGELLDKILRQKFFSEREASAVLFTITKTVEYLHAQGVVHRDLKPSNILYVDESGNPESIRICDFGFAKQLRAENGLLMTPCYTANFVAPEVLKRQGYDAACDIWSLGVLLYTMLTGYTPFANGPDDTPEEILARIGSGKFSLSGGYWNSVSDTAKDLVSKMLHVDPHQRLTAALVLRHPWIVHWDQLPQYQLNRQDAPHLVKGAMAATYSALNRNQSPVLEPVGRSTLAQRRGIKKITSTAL
How it was run: (§2)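 After compound exposure, cells were harvested and lysates run on SDS-PAGE, transferred to nitrocellulose and probed with antibodies. Remaining target (%) was computed from band grayscale relative to an internal control protein and normalised; degradation (%) was 100% minus that.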

[1] = biological target: T2, human Cereblon WT GST-tagged protein (Homo sapiens, UniProt Q96SW2); assay: CRBN binding, HTRF (CEREBLON BINDING kit); settings: Table II-2, CRBN binding screening, HTRF; for inhibition at 0.5 µM: read-out: Inhibition rate (%) at 0.5µM; for inhibition at 2 µM: read-out: Inhibition rate (%) at 2 µM
T2 construct: purchased CISBIO 64BDCRBNPEH
T2 sequence (Q96SW2 whole entry): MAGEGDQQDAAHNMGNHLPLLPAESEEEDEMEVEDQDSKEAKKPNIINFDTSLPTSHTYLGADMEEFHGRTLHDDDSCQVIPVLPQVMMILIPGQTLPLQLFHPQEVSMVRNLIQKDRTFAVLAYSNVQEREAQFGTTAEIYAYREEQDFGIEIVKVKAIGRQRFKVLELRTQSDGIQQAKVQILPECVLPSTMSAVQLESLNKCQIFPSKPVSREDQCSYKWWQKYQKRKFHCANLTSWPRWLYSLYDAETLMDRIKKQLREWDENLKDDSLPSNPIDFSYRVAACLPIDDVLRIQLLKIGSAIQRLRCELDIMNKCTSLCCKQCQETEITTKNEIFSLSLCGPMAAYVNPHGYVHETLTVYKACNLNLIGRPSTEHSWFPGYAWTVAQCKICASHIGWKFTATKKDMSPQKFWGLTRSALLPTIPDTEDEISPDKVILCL
How it was run: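 Competitive HTRF: GST-tagged human WT Cereblon mixed with compound, Thalidomide-Re tracer and GST Eu antibody, incubated 3 h at room temperature. Signals read at 620 and 665 nm.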

RSK1 = biological target: T3, RSK1 (Homo sapiens, UniProt Q15418); assay: Western blot degradation of RSK1 (hPBMC); type: cell-based; settings: Table D8
T3 construct: evaluate the effects of the compounds of the present disclosure on the expression of target proteins in cells; endogenous in cells; host or cells: hPBMC
T3 sequence (Q15418 whole entry): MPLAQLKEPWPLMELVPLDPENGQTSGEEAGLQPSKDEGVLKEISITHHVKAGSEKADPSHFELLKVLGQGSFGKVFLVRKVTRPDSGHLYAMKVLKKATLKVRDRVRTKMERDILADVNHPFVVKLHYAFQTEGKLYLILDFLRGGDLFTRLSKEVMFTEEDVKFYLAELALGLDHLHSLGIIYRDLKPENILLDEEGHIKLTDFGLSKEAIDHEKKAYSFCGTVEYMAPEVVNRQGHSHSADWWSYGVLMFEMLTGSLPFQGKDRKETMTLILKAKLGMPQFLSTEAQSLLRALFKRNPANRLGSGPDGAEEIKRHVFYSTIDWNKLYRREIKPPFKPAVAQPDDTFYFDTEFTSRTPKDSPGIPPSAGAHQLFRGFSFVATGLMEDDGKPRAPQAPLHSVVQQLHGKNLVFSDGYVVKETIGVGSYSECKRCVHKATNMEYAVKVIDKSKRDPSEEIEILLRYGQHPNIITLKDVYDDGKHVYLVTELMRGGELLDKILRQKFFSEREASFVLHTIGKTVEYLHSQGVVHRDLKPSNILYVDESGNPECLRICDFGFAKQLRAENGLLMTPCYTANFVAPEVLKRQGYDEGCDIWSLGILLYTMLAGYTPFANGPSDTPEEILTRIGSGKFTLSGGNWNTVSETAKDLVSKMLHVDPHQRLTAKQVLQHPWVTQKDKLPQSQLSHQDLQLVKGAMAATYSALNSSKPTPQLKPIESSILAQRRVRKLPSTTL
How it was run: as §2

CCRF-CEM = assay: CCK-8 proliferation, CCRF-CEM; type: cell-based, Human; settings: Homo sapiens, CCRF-CEM; CCK-8; 96 hours; read-out: Inhibitory activity (IC50) on tumor cell proliferation, CCRF-CEM
How it was run: as §1

IRAK4 = biological target: T4, IRAK4 (Homo sapiens, UniProt Q9NWZ3); assay: Western blot degradation of IRAK4 (hPBMC); type: cell-based; settings: Table D1
T4 construct: evaluate the effects of the compounds of the present disclosure on the expression of target proteins in cells; endogenous in cells; host or cells: hPBMC
T4 sequence (Q9NWZ3 1-460): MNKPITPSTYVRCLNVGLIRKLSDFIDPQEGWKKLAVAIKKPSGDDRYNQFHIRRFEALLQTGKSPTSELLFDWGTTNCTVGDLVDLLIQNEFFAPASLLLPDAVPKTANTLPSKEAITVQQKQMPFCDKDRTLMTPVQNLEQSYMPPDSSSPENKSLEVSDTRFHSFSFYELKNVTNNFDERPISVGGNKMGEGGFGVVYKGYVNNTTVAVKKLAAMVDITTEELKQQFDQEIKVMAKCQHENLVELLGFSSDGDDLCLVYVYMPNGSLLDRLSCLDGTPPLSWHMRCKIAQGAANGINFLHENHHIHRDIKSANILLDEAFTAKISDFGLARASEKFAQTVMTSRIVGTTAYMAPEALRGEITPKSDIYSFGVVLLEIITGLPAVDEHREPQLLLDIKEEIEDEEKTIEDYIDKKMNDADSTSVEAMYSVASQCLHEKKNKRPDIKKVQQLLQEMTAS
How it was run: as §2

[2] = Homo sapiens, Table B10, compounds designed based on the IRAK4 inhibitors, Jurkat cells, read-out: Inhibitory activity (IC50, nM) on tumor cell proliferation, Jurkat
[3] = Homo sapiens, Jurkat, CCK-8, 96 hours, read-out: Inhibitory activity (IC50) on tumor cell proliferation, Jurkat

| inhibition at 0.5 µM [1] | inhibition at 2 µM [1] | SMILES | Degradation of substrate protein RSK2 (substrate protein remaining %) (RSK2) | Degradation of substrate protein RSK1 (substrate protein remaining %) (RSK1) | further results |
| --- | --- | --- | --- | --- | --- |
| 80 to 100% | 80 to 100% | C[C@@H]1CNC(=O)c2cc3ccc(C(=O)Nc4cnn(Cc5ccc(NCc6cncc(N7CCC(=O)NC7=O)c6)cc5)c4)nc3n21 [GT-07796, (R)-N-(1-(4-(((5-(2,4-dioxotetrahydropyrimidin-1(2H)-yl)pyridin-3-yl)methyl)amino)benzyl)-1H-pyrazol-4-yl)-9-methyl-6-oxo-6,7,8,9-tetrahydropyrido[3',2':4,5]pyrrolo[1,2-a]pyrazine-2-carboxamide] | B (B is defined as substrate protein remaining % > 80%) | A (A is defined as 0% ≤ substrate protein remaining % ≤ 80%) |  |
| 30 to 40% | 60 to 80% | C[C@@H]1CNC(=O)c2cc3ccc(C(=O)Nc4cnn(Cc5ccc(N6CCC(N(C)Cc7cc(C8CCC(=O)NC8=O)cnc7F)CC6)cc5)c4)nc3n21 (stereo partly drawn) [GT-07946, (9R)-N-(1-(4-(4-(((5-(2,6-dioxopiperidin-3-yl)-2-fluoropyridin-3-yl)methyl)(methyl)amino)piperidin-1-yl)benzyl)-1H-pyrazol-4-yl)-9-methyl-6-oxo-6,7,8,9-tetrahydropyrido[3',2':4,5]py rrolo[1,2-a]pyrazine-2-carboxamide] | A (A is defined as 0% ≤ substrate protein remaining % ≤ 80%) | A (A is defined as 0% ≤ substrate protein remaining % ≤ 80%) |  |
| 20 to 30% | 60 to 80% | C[C@@H]1CNC(=O)c2cc3ccc(C(=O)Nc4cnn(Cc5ccc(N6CCC(N7CCN(Cc8cncc(C9CCC(=O)NC9=O)c8)CC7)CC6)cc5)c4)nc3n21 (stereo partly drawn) [GT-07961, (9R)-N-(1-(4-(4-(4-((5-(2,6-dioxopiperidin-3-yl)pyridin-3-yl)methyl)piperazin-1-yl)piperidin-1-yl)benzyl)-1H-pyrazol-4-yl)-9-methyl-6-oxo-6,7,8,9-tetrahydropyrido[3',2':4,5]pyrrolo[1,2-a]pyrazine-2-carboxamide] | A (A is defined as 0% ≤ substrate protein remaining % ≤ 80%) | A (A is defined as 0% ≤ substrate protein remaining % ≤ 80%) |  |
| 60 to 80% | 80 to 100% | C[C@@H]1CNC(=O)c2cc3ccc(C(=O)Nc4cnn(Cc5ccc(N6CCC(N7CCN(Cc8ccc(N9CCC(=O)NC9=O)cn8)CC7)CC6)cc5)c4)nc3n21 [GT-07954, (R)-N-(1-(4-(4-(4-((5-(2,4-dioxotetrahydropyrimidin-1(2H)-yl)pyridin-2-yl)methyl)piperazin-1-yl)piperidin-1-yl)benzyl)-1H-pyrazol-4-yl)-9-methyl-6-oxo-6,7,8,9-tetrahydropyrido[3',2':4,5]pyrrolo[1,2-a]pyrazine-2-carboxamide] | A (A is defined as 0% ≤ substrate protein remaining % ≤ 80%) | A (A is defined as 0% ≤ substrate protein remaining % ≤ 80%) |  |

Further lines, the compound ahead of its results:

| SMILES | inhibition at 0.5 µM [1] | inhibition at 2 µM [1] | Degradation of substrate protein RSK2 (substrate protein remaining %) (RSK2) | Degradation of substrate protein RSK1 (substrate protein remaining %) (RSK1) | further results |
| --- | --- | --- | --- | --- | --- |
| O=C1CCC(c2ccc(CN3CCC(N4CCN(c5ccc6c(c5)nc(NC(=O)c5cccc(C(F)(F)F)c5)n6[C@H]5CC[C@@H](CO)CC5)CC4)CC3)cc2)C(=O)N1 (stereo partly drawn) [GT-05020, N-(5-(4-(1-(4-(2,6-dioxopiperidin-3-yl)benzyl)piperidin-4-yl)piperazin-1-yl)-1-((1s,4s)-4-(hydroxymethyl)cyclohexyl) -1H-benzo[d]imidazol-2-yl)-3-(trifluoromethyl)benzamide] |  |  |  |  | IC50 (Jurkat; [2]): 500 to 1000 nM; IC50 (SR; Homo sapiens): 500 to 1000 nM; IC50 (MM.1S; Homo sapiens, MM1.S): 500 to 1000 nM |
| CC1(C)CCC(c2ccc(Cl)cc2)=C(CN2CCN(c3ccc(C(=O)NS(=O)(=O)c4ccc(N[C@H](CCN5CCN(Cc6ccnc(N7CCC(=O)NC7=O)c6)CC5)CSc5ccccc5)c(S(=O)(=O)C(F)(F)F)c4)cc3)CC2)C1 [GT-07717, (R)-4-(4-((4'-chloro-4,4-dimethyl-3,4,5,6-tetrahydro-[1,1'-biphenyl]-2-yl)methyl)piperazin-1-yl)-N-((4-((4-(4-((2-(2,4-dioxotetrahydropyrimidin-1(2H)-yl)pyridin-4-yl)methyl)piperazin-1-yl)-1-(phenylthio)butan-2-yl)amino)-3-((trifluoromethyl)sulfonyl)phenyl)sulfonyl)benzamide] |  |  |  |  | IC50 (CCRF-CEM): 10 to 50 nM; IC50 (Jurkat; [3]): 10 to 50 nM |
| O=C1CCN(c2ccc(CN3CCC(N4CCN(c5ccc6c(c5)nc(NC(=O)c5cccc(C(F)(F)F)c5)n6[C@H]5CC[C@@H](CO)CC5)CC4)CC3)cn2)C(=O)N1 [GT-05025, N-(5-(4-(1-((6-(2,4-dioxotetrahydropyrimidin-1(2H)-yl)pyridin-3-yl)methyl)piperidin-4-yl)piperazin-1-yl)-1-((1s,4s)-4-(hydroxymethyl)cyclohexyl) -1H-benzo[d]imidazol-2-yl)-3-(trifluoromethyl)benzamide] |  |  |  |  | IC50 (Jurkat; Table B10, compounds designed based on the IRAK4 inhibitors, Jurkat cells, read-out: Inhibitory activity (IC50, nM) on tumor cell proliferation, Jurkat): 500 to 1000 nM; IC50 (SR): 500 to 1000 nM; IC50 (MM.1S): 500 to 1000 nM |
| O=C1CCC(Nc2cccc(CN3CCC(N4CCN(c5ccc6c(c5)nc(NC(=O)c5cccc(C(F)(F)F)c5)n6[C@H]5CC[C@@H](CO)CC5)CC4)CC3)c2)C(=O)N1 (stereo partly drawn) [GT-05023, N-(5-(4-(1-(3-((2,6-dioxopiperidin-3-yl)amino)benzyl)piperidin-4-yl)piperazin-1-yl)-1-((1s,4s)-4-(hydroxymethyl)cyclohexyl) -1H-benzo[d]imidazol-2-yl)-3-(trifluoromethyl)benzamide] |  |  |  |  | IC50 (Jurkat; [2]): 500 to 1000 nM; IC50 (SR; Homo sapiens): 500 to 1000 nM; Degradation of substrate protein IRAK4 (substrate protein remaining %) (IRAK4): A (A is defined as 0% ≤ substrate protein remaining % ≤ 80%); IC50 (MM.1S; Homo sapiens, MM1.S): 500 to 1000 nM |
| CC1(C)CCC(c2ccc(Cl)cc2)=C(CN2CCN(c3ccc(C(=O)NS(=O)(=O)c4ccc(N[C@H](CCN5CCN(Cc6cc(N7CCC(=O)NC7=O)ncc6F)CC5)CSc5ccccc5)c(S(=O)(=O)C(F)(F)F)c4)cc3)CC2)C1 [GT-07716, (R)-4-(4-((4'-chloro-4,4-dimethyl-3,4,5,6-tetrahydro-[1,1'-biphenyl]-2-yl)methyl)piperazin-1-yl)-N-((4-((4-(4-((2-(2,4-dioxotetrahydropyrimidin-1(2H)-yl)-5-fluoropyridin-4-yl)methyl)piperazin-1-yl)-1-(phenylthio)butan-2-yl)amino)-3-((trifluoromethyl)sulfonyl)phenyl)sulfonyl)benzamide] |  |  |  |  | IC50 (CCRF-CEM): 10 to 50 nM; IC50 (Jurkat; [3]): 50 to 100 nM |
